Like-named read-outs stand apart in the source and are kept apart here.
Experiments:
recombinant murine DHODH = target: T1, recombinant murine DHODH (Mus musculus, UniProt O35435); experiment: Inhibition assay of DHODH activity (murine enzyme); type: biochemical; settings: class symbols, key in nM
T1 construct: Prof; M. Löffler, Marburg, Germany (gift)
Method: (§1) The standard assay mixture contained 50 μM decyclo ubichinone, 100 μM dihydroorotate, 60 μM 2,6-dichloroindophenol, as well as 20 mU DHODH. The volume activity of the recombinant enzyme used was 30 U/ml. Measurements were conducted in 50 mM TrisHCl (150 mM KCl, 0.1% Triton X-100, pH 8.0) at 30° C. in a final volume of 1 ml. The components were mixed, and the reaction was started by adding dihydroorotate. The course of reaction was followed by spectrophotometrically measuring the decrease in absorption at 600 nm for […].
(§2) Inhibitory studies were conducted in a standard assay with additional variable amounts of inhibitor. […] These investigations were carried out with recombinant human as well as with recombinant murine DHODH provided by Prof. M. Löffler, Marburg, Germany [M. Löffler, Chem. Biol. Interact.

recombinant human DHODH = target: T2, recombinant human DHODH (Homo sapiens, UniProt Q02127); experiment: Inhibition assay of DHODH activity (human enzyme); type: biochemical
T2 construct: Prof; M. Löffler, Marburg, Germany (gift)
T2 sequence (Q02127 whole entry): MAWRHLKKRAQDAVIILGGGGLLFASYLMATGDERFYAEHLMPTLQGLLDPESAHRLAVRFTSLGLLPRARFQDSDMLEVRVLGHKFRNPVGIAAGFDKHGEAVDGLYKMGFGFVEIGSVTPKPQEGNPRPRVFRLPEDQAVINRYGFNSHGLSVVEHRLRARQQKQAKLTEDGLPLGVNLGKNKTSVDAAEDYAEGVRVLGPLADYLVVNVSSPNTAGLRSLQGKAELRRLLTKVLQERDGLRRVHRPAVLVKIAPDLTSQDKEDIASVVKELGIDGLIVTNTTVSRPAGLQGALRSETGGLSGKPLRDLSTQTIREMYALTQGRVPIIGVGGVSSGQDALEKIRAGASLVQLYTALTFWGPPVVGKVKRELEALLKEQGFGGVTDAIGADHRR
Method: as §1, §2

[1] = Dynamic vapor sorption (water uptake); type: physicochemical; settings: for % water uptake at 85% r.h.: about 85% r.h.
Excerpt: DVS (SMS): Surface Measurement Systems Ltd. DVS-1 water vapour sorption analyzer. The sample is placed on a platinum sample pan and allowed to equilibrate at a given relative humidity (r.h.), usually 50% r.h. Then, a pre-defined humidity program was started with a scanning rate of 5% r.h. change per hour. First step: from 50% r.h. to 0% r.h. (in case of a possibly hydrate as starting material 50 to 95% r.h.), second step: from 0% to 95% r.h. (in case of a possibly hydrate as starting material 95 to 0% r.h.)

[2] = Long-term stability, 18 months storage, HPLC; type: physicochemical
Method: HPLC: HPLC was performed with a Dionex UltiMate® 3000 liquid chromatograph comprising a solvent Rack, a vacuum degasser, a binary pump (mikro), a static mixer (500 μl), an autosampler, a 25 μl sample loop, a 100 μl syringe, a column oven and a DAD detector (semimicro measuring cell), which was set up for UV analysis. Data analysis was done with Chromeleon® 6.80 SP3. Compounds were separated at 30° C. on a Phenomenex Onyx™ Monolithic C18 50×2 mm column. The injection volume was 2 μl and the detection wavelength was 305 nm. As mobile phase, a gradient of 0.1% formic acid in HPLC grade water/acetonitrile was used, starting at a concentration of 5% acetonitrile. The starting concentration was held for 1 minute, then the gradient was ramped linearly to 95% acetonitrile over the course of 2 min, held for 0.7 min at 95% acetonitrile, after which it was returned to 5% acetonitrile within 0.1 min and kept constant for 0.7 min to re-equilibrate the column. The mobile phase flow rate was 1.5 ml/min.
The compounds were stored for 18 months at ambient conditions (20-25° C., 30-60% relative humidity) and subsequently analysed by HPLC for purity.

[3] = Aqueous solubility and pH of the saturated solution; type: physicochemical
Method: Solubility: Solubility was determined by a stepwise addition of 0.05 mL portions of solvent to a suspension of 10 mg of sample in 0.05 mL of solvent.
The aqueous solubility of the respective compound was determined by HPLC, and the pH of the resulting saturated solution was measured. For each compound tested, a suspension was prepared and equilibrated for 24 hours at 25° C. The suspension was filtered, the filtrate was diluted and analysed by HPLC.

T1 sequence (O35435 whole entry): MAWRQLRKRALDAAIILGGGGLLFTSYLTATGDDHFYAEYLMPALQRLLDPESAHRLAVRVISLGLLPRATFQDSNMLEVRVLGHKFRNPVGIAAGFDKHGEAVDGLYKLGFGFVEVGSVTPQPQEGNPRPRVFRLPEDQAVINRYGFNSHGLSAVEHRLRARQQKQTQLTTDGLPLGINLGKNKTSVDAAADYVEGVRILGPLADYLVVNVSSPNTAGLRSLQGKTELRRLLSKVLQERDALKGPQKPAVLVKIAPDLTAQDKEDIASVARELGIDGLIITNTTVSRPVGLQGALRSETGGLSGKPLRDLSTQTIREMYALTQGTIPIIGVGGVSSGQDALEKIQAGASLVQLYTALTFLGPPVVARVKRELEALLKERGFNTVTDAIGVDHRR

Structure (SMILES) | IC50 (recombinant murine DHODH) | other results
O=C(O)C1=C(C(=O)Nc2ccc(-c3ccccc3F)cc2)CCC1 [Compound 13, 2-((2′-fluoro-[1,1′-biphenyl]-4-yl)carbamoyl)cyclopent-1-enecarboxylic acid] | > 1500 nM | –
O=C(O)C1=C(C(=O)Nc2ccc(-c3ccccc3Cl)cc2)CCC1 [Compound 14, 2-((2′-chloro-[1,1′-biphenyl]-4-yl)carbamoyl)cyclopent-1-enecarboxylic acid] | > 1500 nM | –
COc1ccc(-c2ccc(NC(=O)C3=C(C(=O)O)CCC3)cc2Cl)cc1 [Compound 19, 2-((2-chloro-4′-methoxy-[1,1′-biphenyl]-4-yl)carbamoyl)cyclopent-1-enecarboxylic acid] | < 800 nM | –
O=C(O)C1=C(C(=O)Nc2cc(Br)c(OCc3cc(F)ccc3F)c(Br)c2)CCC1 [Compound 24, 2-((3,5-dibromo-4-((2,5-difluorobenzyl)oxy)phenyl)carbamoyl)cyclopent-1-enecarboxylic acid] | 800 to 1500 nM | –
O=C(O)C1=C(C(=O)Nc2cc(Br)c(OCc3ccc(F)c(F)c3)c(Br)c2)CCC1 [Compound 25, 2-((3,5-dibromo-4-((3,4-difluorobenzyl)oxy)phenyl)carbamoyl)cyclopent-1-enecarboxylic acid] | – | IC50 (recombinant human DHODH; recombinant human DHODH, class symbols, key in nM, read-out: human IC50-Value): < 800 nM
O=C(O)C1=C(C(=O)Nc2ccc(-c3cccc(F)c3)cc2F)CCC1 [Compound 27, 2-((3,3′-difluoro-[1,1′-biphenyl]-4-yl)carbamoyl)cyclopent-1-enecarboxylic acid] | > 1500 nM | –
O=C(O)C1=C(C(=O)Nc2cc(Br)c(OCc3ccccc3)c(Br)c2)CSC1 [Compound 29, 4-((4-(benzyloxy)-3,5-dibromophenyl)carbamoyl)-2,5-dihydrothiophene-3-carboxylic acid] | > 1500 nM | –
O=C(O)C1=C(C(=O)Nc2ccc(-c3ccccc3Cl)cc2)CSC1 [Compound 41, 4-((2′-chloro-[1,1′-biphenyl]-4-yl)carbamoyl)-2,5-dihydrothiophene-3-carboxylic acid] | > 1500 nM | –
Cc1cccc(Sc2ccc(NC(=O)C3=C(C(=O)O)CCC3)cc2)c1 [Compound 42, 2-((4-(m-tolylthio)phenyl)carbamoyl)cyclopent-1-enecarboxylic acid] | < 800 nM | –
CCOc1cccc(-c2ccc(NC(=O)C3=C(C(=O)O)CCC3)c(F)c2)c1 [Compound 46, 2-((3′-ethoxy-3-fluoro-[1,1′-biphenyl]-4-yl)carbamoyl)cyclopent-1-enecarboxylic acid] | > 1500 nM | –
O=C(O)C1=C(C(=O)Nc2ccc(Oc3ccccc3)cc2)CCC1 [Compound 50, 2-((4-phenoxyphenyl)carbamoyl)cyclopent-1-enecarboxylic acid] | < 800 nM | –
COc1ccccc1-c1ccc(NC(=O)C2=C(C(=O)O)CCC2)c(Cl)c1 [Compound 53, 2-((3-chloro-2′-methoxy-[1,1′-biphenyl]-4-yl)carbamoyl)cyclopent-1-enecarboxylic acid] | 800 to 1500 nM | –
COc1ccccc1-c1ccc(NC(=O)C2=C(C(=O)O)CCC2)cc1Cl [Compound 54, 2-((2-chloro-2′-methoxy-[1,1′-biphenyl]-4-yl)carbamoyl)cyclopent-1-enecarboxylic acid] | 800 to 1500 nM | –
COc1ccccc1-c1c(F)c(F)c(NC(=O)C2=C(C(=O)O)CCC2)c(F)c1F [Compound 56, 2-((2,3,5,6-tetrafluoro-2′-methoxy-[1,1′-biphenyl]-4-yl)carbamoyl)cyclopent-1-enecarboxylic acid] | < 800 nM | –
COc1ccccc1-c1ccc(NC(=O)C2=C(C(=O)O)CCC2)c(C)c1 [Compound 57, 2-((2′-methoxy-3-methyl-[1,1′-biphenyl]-4-yl)carbamoyl)cyclopent-1-enecarboxylic acid] | 800 to 1500 nM | –
COc1ccccc1-c1cc(Cl)c(NC(=O)C2=C(C(=O)O)CCC2)c(Cl)c1 [Compound 58, 2-((3,5-dichloro-2′-methoxy-[1,1′-biphenyl]-4-yl)carbamoyl)cyclopent-1-enecarboxylic acid] | 800 to 1500 nM | –
CCOc1ccccc1-c1cc(F)c(NC(=O)C2=C(C(=O)O)CCC2)c(F)c1 [Compound 62, 2-((2′-ethoxy-3,5-difluoro-[1,1′-biphenyl]-4-yl)carbamoyl)cyclopent-1-enecarboxylic acid] | 800 to 1500 nM | –
CCOc1cccc(-c2cc(F)c(NC(=O)C3=C(C(=O)O)CCC3)c(F)c2)c1 [Compound 63, 2-((3′-ethoxy-3,5-difluoro-[1,1′-biphenyl]-4-yl)carbamoyl)cyclopent-1-enecarboxylic acid] | 800 to 1500 nM | –
O=C(O)C1=C(C(=O)Nc2c(F)cc(-c3ccccc3F)cc2F)CCC1 [Compound 66, 2-((2′,3,5-trifluoro-[1,1′-biphenyl]-4-yl)carbamoyl)cyclopent-1-enecarboxylic acid] | 800 to 1500 nM | –
COc1ccc(-c2cc(F)c(NC(=O)C3=C(C(=O)O)CCC3)c(F)c2)c(OC)c1 [Compound 67, 2-((3,5-difluoro-2′,4′-dimethoxy-[1,1′-biphenyl]-4-yl)carbamoyl)cyclopent-1-enecarboxylic acid] | > 1500 nM | –
O=C(O)C1=C(C(=O)Nc2ccc(OCc3ccccc3C(F)(F)F)c(Cl)c2)CCC1 [Compound 68, 2-((3-chloro-4-((2-(trifluoromethyl)benzyl)oxy)phenyl)carbamoyl)cyclopent-1-enecarboxylic acid] | > 1500 nM | –
O=C(O)C1=C(C(=O)Nc2ccc(OCc3c(F)cccc3Cl)c(Cl)c2)CCC1 [Compound 69, 2-((3-chloro-4-((2-chloro-6-fluorobenzyl)oxy)phenyl)carbamoyl)cyclopent-1-enecarboxylic acid] | < 800 nM | IC50 (recombinant human DHODH): < 800 nM
O=C(O)C1=C(C(=O)Nc2ccc(OCc3ccccc3)c(Cl)c2)CCC1 [Compound 72, 2-((4-(benzyloxy)-3-chlorophenyl)carbamoyl)cyclopent-1-enecarboxylic acid] | 800 to 1500 nM | –
O=C(O)C1=C(C(=O)Nc2ccc(OCc3ccccc3F)c(Cl)c2)CCC1 [Compound 74, 2-((3-chloro-4-((2-fluorobenzyl)oxy)phenyl)carbamoyl)cyclopent-1-enecarboxylic acid] | < 800 nM | –
CCNCC.COc1cccc(-c2ccc(NC(=O)C3=C(C(=O)O)CCC3)c(F)c2)c1 [Diethylamine (DEA) salt] | – | % water uptake at 95% r.h. [1]: 0.5%; % water uptake at 85% r.h. [1]: 0.2%; Peak area ([2]; HPLC after 18 months storage at ambient conditions (20-25° C., 30-60% relative humidity)): >99%; Occurrence of hydrolysis product in HPLC after 18 months storage ([2]; ambient conditions (20-25° C., 30-60% relative humidity), LOD for hydrolysis product: 0.1 μg/ml): Below LOD*
COc1cccc(-c2ccc(NC(=O)C3=C(C(=O)[O-])CCC3)c(F)c2)c1.[K+] [K salt] | – | % water uptake at 95% r.h. [1]: Ca. 1%; % water uptake at 85% r.h. [1]: Ca. 0.5%
COc1cccc(-c2ccc(NC(=O)C3=C(C(=O)O)CCC3)c(F)c2)c1.N=C(N)NCCCC(N)C(=O)O [L-Arginine salt] | – | % water uptake at 95% r.h. [1]: >12%; % water uptake at 95% r.h. ([1]; listed as arginine salt): > 12%; % water uptake at 85% r.h. [1]: 1.7%
COc1cccc(-c2ccc(NC(=O)C3=C(C(=O)[O-])CCC3)c(F)c2)c1.COc1cccc(-c2ccc(NC(=O)C3=C(C(=O)[O-])CCC3)c(F)c2)c1.[Mg+2] [Mg salt] | – | % water uptake at 95% r.h. [1]: Ca. 10%; % water uptake at 85% r.h. [1]: Ca. 5%
COc1cccc(-c2ccc(NC(=O)C3=C(C(=O)[O-])CCC3)c(F)c2)c1.[Na+] [Na salt] | – | % water uptake at 95% r.h. [1]: Ca. 7.5%; % water uptake at 85% r.h. [1]: Ca. 5%
[O-][n+]1ccccc1[S-].[O-][n+]1ccccc1[S-].[Zn+2] [Zinc salt] | – | % water uptake at 95% r.h. [1]: 5.5%; % water uptake at 85% r.h. [1]: 4%; Solubility ([3]; aqueous, suspension equilibrated for 24 hours at 25° C.): 950 µg/mL; pH ([3]; pH of the resulting saturated solution): 6.3

From patent US20120035175A1, “Novel salts as Anti-Inflammatory, Immunomodulatory and Anti-Proliferatory Agents” (4SC AG, priority 2010, published 2012)
